Converted amounts (≈) assume the structure as drawn.
Assays:
[1] = Selectivity index, ratio of CC50 for human MT4 cells to IC50 for HIV2 ROD; format: functional
Staphylococcus aureus [2] = assay: Antibacterial activity against Staphylococcus aureus MTCC 96 at 250 ug/ml after 24 hrs by Kirby-Bauer method; format: functional; settings: MTCC 96, 24 h, read-out: IZ
Pseudomonas aeruginosa [3] = assay: Antibacterial activity against Pseudomonas aeruginosa MTCC 424 after 24 hrs by broth dilution method; format: functional; settings: MTCC 424, 24 h
Human alphaherpesvirus 3 [4] = assay: Antiviral activity against Varicella-zoster virus Oka expressing thymidine kinase infected in HEL cells assessed as reduction in plaque formation; format: functional, organism-based; settings: Human alphaherpesvirus 3, strain Oka vaccine
Escherichia coli [5] = assay: Antibacterial activity against Escherichia coli MTCC 443 after 24 hrs by broth dilution method; format: functional; settings: MTCC 443, 24 h
Aspergillus niger [6] = assay: Antifungal activity against Aspergillus niger MTCC 282; format: functional
[7] = Selectivity index, ratio of CC50 for human MT4 cells to IC50 for HIV1 3B; format: functional
Staphylococcus aureus [8] = assay: Antibacterial activity against Staphylococcus aureus MTCC 96 after 24 hrs by broth dilution method; format: functional; settings: MTCC 96, 24 h
[9] = test system: Human immunodeficiency virus 2; assay: Antiviral activity against HIV2 ROD infected in MT4 cells assessed as inhibition of virus-induced cytopathogenicity by MTT assay; format: functional, organism-based; settings: Human immunodeficiency virus 2, ISOLATE ROD
[10] = Cytotoxicity against human HEL cells assessed as alteration in cell morphology; format: cell-based
Candida albicans [11] = assay: Antifungal activity against Candida albicans MTCC 227; format: functional
[12] = test system: Human immunodeficiency virus 1; assay: Antiviral activity against HIV1 3B infected in MT4 cells assessed as inhibition of virus-induced cytopathogenicity by MTT assay; format: functional, organism-based; settings: Human immunodeficiency virus 1, 3B
Streptococcus pyogenes [13] = assay: Antibacterial activity against Streptococcus pyogenes MTCC 442 after 24 hrs by broth dilution method; format: functional; settings: MTCC 442, 24 h
[14] = Cytotoxicity against human HEL cells; format: cell-based
Escherichia coli [15] = assay: Antibacterial activity against Escherichia coli MTCC 443 at 250 ug/ml after 24 hrs by Kirby-Bauer method; format: functional; settings: MTCC 443, 24 h, read-out: IZ
Aspergillus clavatus [16] = assay: Antifungal activity against Aspergillus clavatus MTCC 1323 at 250 ug/ml after 74 hrs by Kirby-Bauer method; format: functional; settings: MTCC 1323, 74 h, read-out: IZ
Streptococcus pyogenes [17] = assay: Antibacterial activity against Streptococcus pyogenes MTCC 442 at 250 ug/ml after 24 hrs by Kirby-Bauer method; format: functional; settings: MTCC 442, 24 h, read-out: IZ
Cytomegalovirus [18] = assay: Antiviral activity against Cytomegalovirus AD-169 infected in HEL cells assessed as reduction in plaque formation; format: functional, organism-based; settings: Human betaherpesvirus 5, AD-169, HEL
Human alphaherpesvirus 3 [19] = assay: Antiviral activity against thymidine kinase-deficient Varicella-zoster virus infected in HEL cells assessed as reduction in plaque formation; format: functional, organism-based; settings: Human alphaherpesvirus 3, HEL
Aspergillus niger [20] = assay: Antifungal activity against Aspergillus niger MTCC 282 at 250 ug/ml after 74 hrs by Kirby-Bauer method; format: functional; settings: MTCC 282, 74 h, read-out: IZ
Candida albicans [21] = assay: Antifungal activity against Candida albicans MTCC 227 at 250 ug/ml after 74 hrs by Kirby-Bauer method; format: functional; settings: MTCC 227, 74 h, read-out: IZ
Pseudomonas aeruginosa [22] = assay: Antibacterial activity against Pseudomonas aeruginosa MTCC 424 at 250 ug/ml after 24 hrs by Kirby-Bauer method; format: functional; settings: MTCC 424, 24 h, read-out: IZ
Cytomegalovirus [23] = assay: Antiviral activity against Cytomegalovirus Davis in HEL cells assessed as reduction in plaque formation; format: functional, organism-based; settings: Human betaherpesvirus 5, Davis
Aspergillus clavatus [24] = assay: Antifungal activity against Aspergillus clavatus MTCC 1323; format: functional
[25] = Cytotoxicity against human MT4 cells by MTT assay; format: cell-based

Structure (SMILES)	Ratio CC50/IC50 [1]	zone of inhibition at 250 µg/mL (Staphylococcus aureus [2]) [mm]	MIC (Pseudomonas aeruginosa [3]) [µg/mL]	EC50 (Human alphaherpesvirus 3 [4]) [µg/mL]	MIC (Escherichia coli [5]) [µg/mL]	MIC (Aspergillus niger [6]) [µg/mL]	Ratio CC50/IC50 [7]	MIC (Staphylococcus aureus [8]) [µg/mL]	IC50 [9] [µg/mL]	MCC [10] [µg/mL]	MIC (Candida albicans [11]) [µg/mL]	IC50 [12] [µg/mL]	MIC (Streptococcus pyogenes [13]) [µg/mL]	CC50 [14] [µg/mL]	zone of inhibition at 250 µg/mL (Escherichia coli [15]) [mm]	zone of inhibition at 250 µg/mL (Aspergillus clavatus [16]) [mm]	zone of inhibition at 250 µg/mL (Streptococcus pyogenes [17]) [mm]	EC50 (Cytomegalovirus [18]) [µg/mL]	EC50 (Human alphaherpesvirus 3 [19]) [µg/mL]	zone of inhibition at 250 µg/mL (Aspergillus niger [20]) [mm]	further results
[O-]c1on[n+](-c2ccc(Cc3ccc(-[n+]4noc([O-])c4CN4CCCCC4)cc3)cc2)c1CN1CCCCC1	<1	18	125 (≈ 236 µM)	> 4	500 (≈ 942 µM)	250 (≈ 471 µM)	<1	250 (≈ 471 µM)	> 12	≥ 20	500 (≈ 942 µM)	> 12	125 (≈ 236 µM)	12.6 (≈ 23.7 µM)	16	21	20	> 4	> 4	23	zone of inhibition at 250 µg/mL (Candida albicans [21]): 22 mm; zone of inhibition at 250 µg/mL (Pseudomonas aeruginosa [22]): 20 mm; EC50 (Cytomegalovirus [23]): 20 µg/mL (≈ 37.7 µM); MIC (Aspergillus clavatus [24]): 500 µg/mL (≈ 942 µM); CC50 [25]: 12.1 µg/mL (≈ 22.7 µM)
CC(=O)N1CCN(Cc2c([O-])on[n+]2-c2ccc(Cc3ccc(-[n+]4noc([O-])c4CN4CCN(C(C)=O)CC4)cc3)cc2)CC1	<1	20	200 (≈ 324 µM)	> 0.8	250 (≈ 405 µM)	1000 (≈ 1620 µM)	<1	250 (≈ 405 µM)	> 12	20	250 (≈ 405 µM)	> 12	100 (≈ 162 µM)	10.2 (≈ 16.5 µM)	18	25	16	> 4	> 0.8	21	zone of inhibition at 250 µg/mL (Candida albicans [21]): 23 mm; zone of inhibition at 250 µg/mL (Pseudomonas aeruginosa [22]): 18 mm; EC50 (Cytomegalovirus [23]): > 4 µg/mL; MIC (Aspergillus clavatus [24]): 250 µg/mL (≈ 405 µM); CC50 [25]: 12 µg/mL (≈ 19.4 µM)
Cc1ccc(-[n+]2noc([O-])c2CN2CCN(C)CC2)cc1	<1	16	100 (≈ 347 µM)	> 20	250 (≈ 867 µM)	500 (≈ 1730 µM)	<1	500 (≈ 1730 µM)	> 12.7	100	500 (≈ 1730 µM)	> 12.9	100 (≈ 347 µM)	25.6 (≈ 88.8 µM)	18	21	20	> 20	> 20	21	zone of inhibition at 250 µg/mL (Candida albicans [21]): 18 mm; zone of inhibition at 250 µg/mL (Pseudomonas aeruginosa [22]): 21 mm; EC50 (Cytomegalovirus [23]): > 20 µg/mL; MIC (Aspergillus clavatus [24]): 500 µg/mL (≈ 1730 µM); CC50 [25]: 12.7 µg/mL (≈ 44 µM)
[O-]c1on[n+](-c2ccc(Cc3ccc(-[n+]4noc([O-])c4CN4CCN(c5cccc(Cl)c5Cl)CC4)cc3)cc2)c1CN1CCN(c2cccc(Cl)c2Cl)CC1	<1	21	250 (≈ 304 µM)	> 4	125 (≈ 152 µM)	250 (≈ 304 µM)	<1	125 (≈ 152 µM)	> 20.8	100	1000 (≈ 1220 µM)	> 20.8	200 (≈ 243 µM)	28.7 (≈ 34.9 µM)	21	23	18	12.6 (≈ 15.3 µM)	> 4	23	zone of inhibition at 250 µg/mL (Candida albicans [21]): 21 mm; zone of inhibition at 250 µg/mL (Pseudomonas aeruginosa [22]): 17 mm; EC50 (Cytomegalovirus [23]): > 20 µg/mL; MIC (Aspergillus clavatus [24]): 1000 µg/mL (≈ 1220 µM); CC50 [25]: 20.8 µg/mL (≈ 25.3 µM)
[O-]c1on[n+](-c2ccc(Cc3ccc(-[n+]4noc([O-])c4CN4CCN(c5cccc(Cl)c5)CC4)cc3)cc2)c1CN1CCN(c2cccc(Cl)c2)CC1	<1	19	500 (≈ 663 µM)	> 4	250 (≈ 332 µM)	1000 (≈ 1330 µM)	<1	250 (≈ 332 µM)	> 13.2	≥ 20	1000 (≈ 1330 µM)	> 13.2	200 (≈ 265 µM)	> 100	18	22	19	> 4	> 4	20	zone of inhibition at 250 µg/mL (Candida albicans [21]): 21 mm; zone of inhibition at 250 µg/mL (Pseudomonas aeruginosa [22]): 17 mm; EC50 (Cytomegalovirus [23]): 20 µg/mL (≈ 26.5 µM); MIC (Aspergillus clavatus [24]): 1000 µg/mL (≈ 1330 µM); CC50 [25]: 13.2 µg/mL (≈ 17.5 µM)
Cc1ccc(-[n+]2noc([O-])c2CN2CCN(C3=Nc4ccccc4Sc4ccccc43)CC2)cc1	<1	19	125 (≈ 258 µM)	> 20	250 (≈ 517 µM)	1000 (≈ 2070 µM)	<1	200 (≈ 414 µM)	> 13.6	≥ 20	1000 (≈ 2070 µM)	> 13.6	500 (≈ 1030 µM)	14.8 (≈ 30.6 µM)	19	18	16	> 4	> 20	18	zone of inhibition at 250 µg/mL (Candida albicans [21]): 21 mm; zone of inhibition at 250 µg/mL (Pseudomonas aeruginosa [22]): 21 mm; EC50 (Cytomegalovirus [23]): > 20 µg/mL; MIC (Aspergillus clavatus [24]): 1000 µg/mL (≈ 2070 µM); CC50 [25]: 13.7 µg/mL (≈ 28.2 µM)
Cc1ccc(-[n+]2noc([O-])c2CN2CCN(c3ccccc3)CC2)cc1	<1	18	100 (≈ 285 µM)	> 4	500 (≈ 1430 µM)	200 (≈ 571 µM)	<1	250 (≈ 713 µM)	> 13.2	100	500 (≈ 1430 µM)	> 13.2	250 (≈ 713 µM)	20 (≈ 57.1 µM)	16	21	18	> 20	> 4	24	zone of inhibition at 250 µg/mL (Candida albicans [21]): 21 mm; zone of inhibition at 250 µg/mL (Pseudomonas aeruginosa [22]): 20 mm; EC50 (Cytomegalovirus [23]): > 20 µg/mL; MIC (Aspergillus clavatus [24]): 500 µg/mL (≈ 1430 µM); CC50 [25]: 13.2 µg/mL (≈ 37.8 µM)

Source: ChEMBL document CHEMBL3044741, “Synthesis of novel biologically active methylene derivatives of sydnones” (Med Chem Res, 2013)
